Experiments:
[1] = test system: disease model of Sjogren's syndrome (Nfkbiz^−/− or IkB-ξ-deficient mice, C57BL/6); assay: Tear production measurement (Schirmer test, phenol red thread); type: in vivo; details: oral, 80 mg/kg b.i.d, 5 weeks; versus control (Ctrl) group; N=11; FIG. 1
Experimental: Hereinafter, experiments for evaluating the anti-inflammatory effect and tissue regeneration effect of oral administration of the composition according to one embodiment of the present invention by using a disease model of Sjogren's syndrome (Nfkbiz^−/− or IkB-ξ-deficient mice, C57BL/6) will be described in detail.
Tear production was measured using a phenol red thread (Zone-Quick; Oasis, Glendora, Calif.) 1 minute after animal anesthesia. One end of the phenol red thread was placed against the lower eyelid of the lateral canthus of the animal eye and left to stand for 60 seconds. After the thread was soaked with tear by the capillary phenomenon, the length (mm) of the thread whose color changed was measured. When the amount of tear secretion decreases, dry eye caused by Sjogren syndrome symptoms is promoted. Thus, it was determined that the greater the amount of tear secretion, the greater the effect of the test substance.

IL-17A [2] = assay: Protein expression in lacrimal and salivary gland tissues (immunoblotting), IL-17A; type: in vivo, mice; details: dose of 100 mg/kg as printed; compared to control group; FIG. 3
Experimental: (§1) The lacrimal gland and salivary gland tissues of the test animals were isolated, placed in PBS, and homogenized on ice. 1 ml of RIPA lysis buffer (50 mM Tris-Cl pH7.4, 150 mM NaCl, 1 mM EDTA, 1% Triton X-100, 0.1% SDS, 1% sodium deoxycholate, 0.5 mM phenylmethylsulfonyl fluoride, 2 μg/ml leupeptin, 2 μg/ml aprotinin, 10 mM NaF, and 1 mM sodium orthovanadate) was added to each homogenized tissue which was then kept on ice for 5 minutes. Each tissue solution was then centrifuged (at 13000 rpm for 20 mins), and only the supernatant was collected, and then protein correction was performed. Samples were incubated with anti-Akt (1:400) and anti-interleukin 17A (1:200) antibodies and subjected to immunoprecipitation (IP) (overnight), followed by sampling. Each of the samples was subjected to SDS-PAGE and transferred to polyvinylidene fluoride (PVDF) membranes. Then, the Akt-IP-samples were incubated with phospho-Akt (S473) (diluted at 1:100,000 in blocking buffer (TBS+Tween20)+0.1% skim milk) at 4° C. overnight, and the IL-17A-IP-samples were incubated with IL-17A primary antibody (diluted at 1:100,000 in blocking buffer (TBS+Tween20)+0.1% skim milk) at 4° C. overnight. Next, the samples were incubated with HRP-conjugated secondary antibody, and then protein bands were visualized with ECL solution in the dark and quantified by exposure to X-ray films.

p-AKT = assay: Protein expression in lacrimal and salivary gland tissues (immunoblotting), p-AKT; type: in vivo, mice; details: versus control, N=3, FIG. 3
Experimental: as §1

IL-2 = assay: Quantitative RT-PCR of mRNA in lacrimal and salivary gland tissues, IL-2; type: in vivo, mice; details: N=6, FIGS. 4a, 4b
interferon-g = assay: Quantitative RT-PCR of mRNA in lacrimal and salivary gland tissues, interferon-g; type: in vivo, mice; details: N=6
IL-17A [3] = assay: Quantitative RT-PCR of mRNA in lacrimal and salivary gland tissues, IL-17A; type: in vivo, mice; details: N=6
BAFF = assay: Quantitative RT-PCR of mRNA in lacrimal and salivary gland tissues, BAFF; type: in vivo, mice; details: N=6
CXCL13 = assay: Quantitative RT-PCR of mRNA in lacrimal and salivary gland tissues, CXCL13; type: in vivo, mice; details: N=6
CXCR5 = assay: Quantitative RT-PCR of mRNA in lacrimal and salivary gland tissues, CXCR5; type: in vivo, mice; details: N=6
FLT3L = assay: Quantitative RT-PCR of mRNA in lacrimal and salivary gland tissues, FLT3L; type: in vivo, mice; details: N=6
IL-13 = assay: Quantitative RT-PCR of mRNA in lacrimal and salivary gland tissues, IL-13; type: in vivo, mice; details: N=6
IL-6 = assay: Quantitative RT-PCR of mRNA in lacrimal and salivary gland tissues, IL-6; type: in vivo, mice; details: N=6
IL-12 = assay: Quantitative RT-PCR of mRNA in lacrimal and salivary gland tissues, IL-12; type: in vivo, mice; details: N=6
IL-18 = assay: Quantitative RT-PCR of mRNA in lacrimal and salivary gland tissues, IL-18; type: in vivo, mice; details: N=6
IL-21 = assay: Quantitative RT-PCR of mRNA in lacrimal and salivary gland tissues, IL-21; type: in vivo, mice; details: N=6
IL-22 = assay: Quantitative RT-PCR of mRNA in lacrimal and salivary gland tissues, IL-22; type: in vivo, mice; details: N=6
TNF-α = assay: Quantitative RT-PCR of mRNA in lacrimal and salivary gland tissues, TNF-α; type: in vivo, mice; details: N=6
IFN-α = assay: Quantitative RT-PCR of mRNA in lacrimal and salivary gland tissues, IFN-α; type: in vivo, mice; details: N=6
anti-SSA/Ro = assay: Quantification (ELISA) of autoantibody anti-SSA/Ro in plasma; type: in vivo, mice
Source text: (§2) As markers of Sjogren's syndrome, anti-SSA/Ro (Signosis, #EA-5202, US) and anti-SSB/La (Signosis, #EA-5204, US), which are autoantibodies based on RNP particles, and interleukin-17A cytokine (Signosis, #EA-2516, US) which is involved in the onset of autoimmune diseases, were quantified by Enzyme-linked ImmunoSorbent Assay (ELISA) in order to determine the secretion and production of these markers in serum.

anti-SSB/La = assay: Quantification (ELISA) of autoantibody anti-SSB/La in plasma; type: in vivo, mice
Source text: as §2

IL-17A [4] = assay: Quantification (ELISA) of cytokine IL-17A in plasma; type: in vivo, mice; details: versus control, N=3, FIG. 5
Source text: as §2

[5] = test system: disease model of Sjogren's syndrome (Nfkbiz^−/− or IkB-ξ-deficient mice, C57BL/6); assay: Analysis of inflammatory phenotypes in animals (disease scores); type: in vivo; details: compared to control group, from 2 weeks after administration; N=11; FIG. 7
Source text: The degree of inflammation in the animal model was scored according to the following criteria and analyzed.
2: eyes with discharge that were difficult to open
3: periocular skin erosion
4: inflammation reaching perioral skin
5: erosion and loss of hair in whole face.

[6] = IkB-ξ-deficient male mice, 80 mg/kg, n = 3, vehicle = 100.0

O=C(NC(Cc1cc(=O)[nH]c2ccccc12)C(=O)OCCN1CCOCC1)c1ccc(Cl)cc1.O=C(O)CC(=O)O (stereo not drawn) [SA001, 2-(morpholin-4-yl)ethyl 2-(4-chlorobenzoylamino)-3-(2-oxo-1,2-dihydroquinolin-4-yl)propionate malonate]
tear production [1]: significantly increased
protein expression of IL-17A in the lacrimal gland and salivary gland tissues (IL-17A [2]): significantly decreased
expression of p-AKT (activated form of Akt) (p-AKT): significantly increased
IL-2 mRNA, decrease compared with control (IL-2; lacrimal glands): 4.5 fold
IL-2 mRNA, decrease compared with control (IL-2; salivary glands): 1.3 fold
interferon-g mRNA, decrease compared with control (interferon-g; lacrimal glands): 1.3 fold
interferon-g mRNA, decrease compared with control (interferon-g; salivary glands): 1.3 fold
IL-17A mRNA, decrease compared with control (IL-17A [3]; lacrimal glands): 2.8 fold
IL-17A mRNA, decrease compared with control (IL-17A [3]; salivary glands): 3.3 fold
BAFF mRNA, decrease compared with control (BAFF; lacrimal glands): 1.6 fold
BAFF mRNA, decrease compared with control (BAFF; salivary glands): not significant
CXCL13 mRNA, decrease compared with control (CXCL13; lacrimal glands): 2.5 fold
CXCL13 mRNA, decrease compared with control (CXCL13; salivary glands): 5 fold
CXCR5 mRNA, decrease compared with control (CXCR5; lacrimal glands): not significant
CXCR5 mRNA, decrease compared with control (CXCR5; salivary glands): 2.5 fold
FLT3L mRNA, decrease compared with control (FLT3L; lacrimal glands): 2.5 fold
FLT3L mRNA, decrease compared with control (FLT3L; salivary glands): 13 fold
IL-13 mRNA, decrease compared with control (IL-13; lacrimal glands): 2 fold
IL-13 mRNA, decrease compared with control (IL-13; salivary glands): 10 fold
IL-6 mRNA, decrease compared with control (IL-6; lacrimal glands): 2 fold
IL-6 mRNA, decrease compared with control (IL-6; salivary glands): 2.5 fold
IL-12 mRNA, decrease compared with control (IL-12; lacrimal glands): 10 fold
IL-12 mRNA, decrease compared with control (IL-12; salivary glands): not significant
IL-18 mRNA, decrease compared with control (IL-18; lacrimal glands): not significant
IL-18 mRNA, decrease compared with control (IL-18; salivary glands): 1.6 fold
IL-21 mRNA, decrease compared with control (IL-21; lacrimal glands): 1.6 fold
IL-21 mRNA, decrease compared with control (IL-21; salivary glands): 20 fold
IL-22 mRNA, decrease compared with control (IL-22; lacrimal glands): 1.7 fold
IL-22 mRNA, decrease compared with control (IL-22; salivary glands): 1.6 fold
TNF-α mRNA, decrease compared with control (TNF-α; lacrimal glands): 1.6 fold
TNF-α mRNA, decrease compared with control (TNF-α; salivary glands): 2.2 fold
IFN-α mRNA, decrease compared with control (IFN-α; lacrimal glands): 1.6 fold
IFN-α mRNA, decrease compared with control (IFN-α; salivary glands): 40 fold
SSA/Ro, No. (%) (anti-SSA/Ro; [6]): 61.0 ± 8.7%
anti-SSA in plasma, decrease compared to control group (anti-SSA/Ro; N=3, FIG. 5): 40%
SSB/La, No. (%) (anti-SSB/La; [6]): 67.9 ± 12.4%
anti-SSB in plasma, decrease compared to control group (anti-SSB/La; N=3, FIG. 5): 30%
IL-17A in plasma (IL-17A [4]): decreased
onset of the disease (disease score, inflammatory phenotype on five-point scale) [5]: significantly slowed
